Results published in article PMC8772704, “Quantification of Fosfomycin in Combination with Nine Antibiotics in Human Plasma and Cation-Adjusted Mueller-Hinton II Broth via LCMS” (Antibiotics, 2022).

Columns and labels:
[1] = 32-day stability of stock solutions stored at −80 °C; format: physicochemical; details: stock solution stored at -80 °C; peak area Day 32 vs Day 1
Procedure: Stability of stock solutions
All stock solutions of antibiotics and their corresponding stable-isotope variants were measured prior to cold storage at -80 °C and tested at 32 days later.
Stability was determined by comparing the peak area of each drug between its Day 1 and Day 32 measurement. Acceptable criteria for stability was met if the […]

[2] = Long-term storage stability of antibiotics in combination with fosfomycin spiked in plasma/CAMHB (−30 °C, −80 °C); format: physicochemical; details: for Stability verdict (within ±15% of nominal): CAMHB samples stored at −30 °C, 4 weeks; for Mean accuracy (%), Table S15 / Mean accuracy (%), Table S17 / Mean accuracy (%), Table S16 / Mean accuracy (%), Table S18: CAMHB; for Mean accuracy (%), Table S15 / Mean accuracy (%), Table S17 / Mean accuracy (%), Table S16 / Mean accuracy (%), Table S18 / Mean accuracy (%), Table S11 / Mean accuracy (%), Table S13 / Mean accuracy (%), Table S12 / Mean accuracy (%), Table S14: combination with fosfomycin; for Mean accuracy (%), Table S15 / Mean accuracy (%), Table S11: 2 weeks at -30 °C; for Mean accuracy (%), Table S17 / Mean accuracy (%), Table S13: 2 weeks at -80 °C; for Mean accuracy (%), Table S16 / Mean accuracy (%), Table S12: 4 weeks at -30 °C; for Mean accuracy (%), Table S18 / Mean accuracy (%), Table S14: 4 weeks at -80 °C; for Mean accuracy (%), Table S11 / Mean accuracy (%), Table S13 / Mean accuracy (%), Table S12 / Mean accuracy (%), Table S14: plasma
Procedure: (§1) The stability of fosfomycin in combination with other antibiotics in plasma/CAMHB was evaluated under various operational conditions. Spiked plasma/CAMHB samples were evaluated at 7 h and 15 h in the autosampler at 4 °C. Long-term stability was evaluated up to 4 weeks of antibiotic-spiked plasma/CAMHB samples at LQC, MQC, and HQC concentrations stored at −30 °C and −80 °C.

[3] = Autosampler stability at 4 °C of extracted antibiotic-spiked plasma/CAMHB samples; details: for Mean accuracy (%), Table S8 / Mean accuracy (%), Table S10: CAMHB extracted samples; for Mean accuracy (%), Table S8 / Mean accuracy (%), Table S7: 7 h autosampler 4 °C; for Mean accuracy (%), Table S10 / Mean accuracy (%), Table S9: 15 h autosampler 4 °C; for Mean accuracy (%), Table S7 / Mean accuracy (%), Table S9: plasma extracted samples
Procedure: as §1

[4] = Plasma concentrations in four patients on fosfomycin-based combination therapy (pilot clinical feasibility study, LCMS/MS)
Procedure: For 20 µL of plasma/CAMHB sample, 20 µL of water and 20 µL of stable-isotope as internal standard (IS) were added and vortexed. 180 µL of acetonitrile was added for protein precipitation and subsequently removed by centrifugation (12,700 rpm for 10 min at 25 °C). Finally, 15 µL of the supernatant was diluted with 225 µL formic acid in water (0.1% v/v), and 10 µL was injected for LCMS/MS analysis. For the calibration curve and QCs, 20 µL of the corresponding antibiotic standard working solution was added instead of water.
Samples were analyzed using a Nexera X2 LCMS 8060 system (Shimadzu, Kyoto, Japan). […] Electrospray ionization employing positive and negative ion mode with multiple reaction monitoring was used for analyte quantification (Table S1). Data were acquired and analyzed using Shimadzu LabSolutions (Version 5.97).
The assay method described in this paper has been applied to a pilot clinical feasibility study to evaluate the proportion of patients with sub-optimal β-lactam levels and the need for dose adjustments in infected patients with unpredictable pharmacokinetics. We described a case series of four patients where they received in vitro guided antibiotic combination therapy using a fosfomycin-based combination regimen to treat a carbapenem-resistant Gram-negative bacteria infection. These four patients were recruited into the BLAST-2 study as the combination regimen contains a β-lactam antibiotic. In this case series, two were undergoing intermittent hemodialysis, and two patients had normal renal function. In the two patients on hemodialysis, they were on a dosing regimen of 8 g of fosfomycin on dialysis days (3 g at least 4 h before dialysis session and 5 g after completion of dialysis). The remaining two patients received 8 g of fosfomycin given every 8 h as a prolonged infusion.
Blood samples (2–3 mL from an indwelling catheter) were collected four times over a dosing interval of the β-lactam dosing regimen and centrifuged (10 min at 3000 rpm) (Eppendorf 5425R). The resultant plasma was stored (within 15 min of collection) at −80 °C until assay.

[5] = HQC: nominal mg/L CAZ 150, FEP 200, PIP 250, ATM 300, MEM 200, DOR 175, LVX 30, CEFT 250, TZB 87.5, TGC 20, AVI 30, FOF 1000
[6] = LQC: nominal 1 mg/L (levofloxacin, avibactam 0.5; fosfomycin 10)
[7] = MQC: nominal mg/L CAZ 75, FEP 100, PIP 150, ATM 150, MEM 100, DOR 87.5, LVX 15, CEFT 125, TZB 43.75, TGC 10, AVI 15, FOF 500

Compound	32 Day Stability (%) [1]	Stability verdict (within ±15% of nominal) [2]	Mean accuracy (%), Table S15 ([2]; HQC (nominal as E15))	Mean accuracy (%), Table S15 ([2]; LQC (nominal as E13))	Mean accuracy (%), Table S15 ([2]; MQC (nominal as E14))	Mean accuracy (%), Table S17 ([2]; HQC (nominal as E15))	Mean accuracy (%), Table S17 ([2]; LQC (nominal as E13))	Mean accuracy (%), Table S17 ([2]; MQC (nominal as E14))	Mean accuracy (%), Table S16 ([2]; HQC (nominal as E15))	Mean accuracy (%), Table S16 ([2]; LQC (nominal as E13))	Mean accuracy (%), Table S16 ([2]; MQC (nominal as E14))	Mean accuracy (%), Table S18 ([2]; HQC (nominal as E15))	Mean accuracy (%), Table S18 ([2]; LQC (nominal as E13))	Mean accuracy (%), Table S18 ([2]; MQC (nominal as E14))	Mean accuracy (%), Table S11 ([2]; HQC (nominal as E15))	Mean accuracy (%), Table S11 ([2]; LQC (nominal as E13))	Mean accuracy (%), Table S11 ([2]; MQC (nominal as E14))	Mean accuracy (%), Table S13 ([2]; HQC (nominal as E15))	Mean accuracy (%), Table S13 ([2]; LQC (nominal as E13))	Mean accuracy (%), Table S13 ([2]; MQC (nominal as E14))	further results
C[C@H]1[C@H](NC(=O)/C(=N\OC(C)(C)C(=O)O)c2csc(N)n2)C(=O)N1S(=O)(=O)O [Aztreonam, aztreonam]	99.75%	instability	102.6%	102.2%	92.5%	100.2%	101.3%	95.1%	92.5%	66.5%	91.8%	98.4%	109.7%	96.0%	97.3%	103.1%	90.2%	97.2%	87.6%	94.5%	Mean accuracy (%), Table S12 ([2]; HQC (nominal as E15)): 96.1%; Mean accuracy (%), Table S12 ([2]; LQC (nominal as E13)): 106.4%; Mean accuracy (%), Table S12 ([2]; MQC (nominal as E14)): 96.2%; Mean accuracy (%), Table S14 ([2]; HQC (nominal as E15)): 97.8%; Mean accuracy (%), Table S14 ([2]; LQC (nominal as E13)): 104.2%; Mean accuracy (%), Table S14 ([2]; MQC (nominal as E14)): 101.4%; Mean accuracy (%), Table S8 ([3]; HQC (nominal as E15)): 99.3%; Mean accuracy (%), Table S8 ([3]; LQC (nominal as E13)): 109.7%; Mean accuracy (%), Table S8 ([3]; MQC (nominal as E14)): 107.5%; Mean accuracy (%), Table S10 ([3]; HQC (nominal as E15)): 104.4%; Mean accuracy (%), Table S10 ([3]; LQC (nominal as E13)): 103.7%; Mean accuracy (%), Table S10 ([3]; MQC (nominal as E14)): 104.7%; Mean accuracy (%), Table S7 [3, 5]: 109.1%; Mean accuracy (%), Table S7 [3, 6]: 100.8%; Mean accuracy (%), Table S7 [3, 7]: 101.2%; Mean accuracy (%), Table S9 ([3]; HQC (nominal as E15)): 107.9%; Mean accuracy (%), Table S9 ([3]; LQC (nominal as E13)): 105.8%; Mean accuracy (%), Table S9 ([3]; MQC (nominal as E14)): 102.4%; Mean total plasma concentration (range) ([4]; Patient 002, intermittent hemodialysis, aztreonam 2 g every 12 h as a 2-h infusion): 8.8 to 86.2 mg/L
CO/N=C(\C(=O)N[C@@H]1C(=O)N2C(C(=O)[O-])=C(C[N+]3(C)CCCC3)CS[C@H]12)c1csc(N)n1 [Cefepime, cefepime]	108.51%	instability	95.3%	100.9%	102.0%	94.8%	108.8%	98.7%	93.2%	91.1%	94.9%	93.2%	107.6%	102.8%	89.3%	98.6%	87.2%	89.0%	102.0%	94.3%	Mean accuracy (%), Table S12 ([2]; HQC (nominal as E15)): 89.6%; Mean accuracy (%), Table S12 ([2]; LQC (nominal as E13)): 100.5%; Mean accuracy (%), Table S12 ([2]; MQC (nominal as E14)): 97.4%; Mean accuracy (%), Table S14 ([2]; HQC (nominal as E15)): 95.7%; Mean accuracy (%), Table S14 ([2]; LQC (nominal as E13)): 111.6%; Mean accuracy (%), Table S14 ([2]; MQC (nominal as E14)): 101.3%; Mean accuracy (%), Table S8 ([3]; HQC (nominal as E15)): 96.7%; Mean accuracy (%), Table S8 ([3]; LQC (nominal as E13)): 112.0%; Mean accuracy (%), Table S8 ([3]; MQC (nominal as E14)): 103.5%; Mean accuracy (%), Table S10 ([3]; HQC (nominal as E15)): 101.7%; Mean accuracy (%), Table S10 ([3]; LQC (nominal as E13)): 106.6%; Mean accuracy (%), Table S10 ([3]; MQC (nominal as E14)): 114.1%; Mean accuracy (%), Table S7 [3, 5]: 86.5%; Mean accuracy (%), Table S7 [3, 6]: 94.2%; Mean accuracy (%), Table S7 [3, 7]: 101.1%; Mean total plasma concentration (range) ([4]; Patient 003, intermittent hemodialysis, cefepime 1 g every 12 h as a 4-h infusion): 21.6 to 157.5 mg/L
